According to patent EP0429333B1, “Process for producing oxazopyrroloquinolines, novel oxazopyrroloquinolines, and use of oxazopyrroloquinolines” (priority 1989, dated 1991):

Experiments:
[1] = biological target: aldose reductase of kidney (Canis lupus familiaris, UniProt A0A8I3P2L6); experiment: Inhibitory effect on aldose reductase of kidney; format: biochemical, dog; settings: read-out: Degree of inhibition for aldose reductase (%)
Outline: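 Aldose reductase was purified from dog kidney medulla. Activity was measured as NADPH consumption (A340 decrease) with DL-glyceraldehyde substrate and 3mM NADPH stock, in 0.1M phosphate buffer pH 6.2 at 25°C. One unit consumes 1 µmole NADPH/min.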

cataract = experiment: Anti-cataract effect, intraperitoneal administration, 50 % galactose fed rats; format: in vivo, Sprague-Davley rats; settings: 2 mg, 5 mg, 10 mg and 20 mg per 1 kg of rat intraperitoneally once a day
Protocol: Eightyfour male Sprague-Davley rats (supplied from Japan Charles Liver Co.) of four weeks old and having a body weight of 70 - 80 g were used and the following experiments were conducted. One group consisted of six rats.
The groups included normal group, 50 % galactose administration group, PQQ administration group, and OPQ administration group. Commercially available feeding stuff (manufactured by Japan Clea Co.) was given to the rats of normal group, and rats of 50 % galactose administration group, PQQ administration group and OPQ administration group were allowed to freely take powdery feeding stuff comprising a mixture of the above-mentioned commercially available powder feeding stuff and D-galactose for food additive in equal weight.
To the rats of PQQ and OPQ administration groups were intraperitoneally administered PQQ·2Na or OPQ in a dosage of 2 mg, 5 mg, 10 mg and 20 mg per 1 kg of rat once a day simultaneously with starting of galactose feeding and until termination of feeding.
On the 6th day and the 9th day from starting of experiment, eyeball was observed by stereoscopic microscope and judgment on cataract was made according to the following criteria. A0: No muddiness (normal) A1: Light white muddiness in the surface portion. A2: A slight heavy white muddiness in the surface portion. A3: Heavy white muddiness in the surface portion. A4: Heavy white muddiness in the surface portion and a slight white muddiness in the core portion. A5: Heavy white muddiness in the surface portion and the core portion.

T cell = experiment: Test on T cell blast transformation reaction (1), spleen cells of treated mice; format: in vivo, C3H/He mouse; settings: for Relative activity (%): no administration = 100
Protocol: In the same manner as in Example 36, OPQ was administered to C3H/He mouse and the mouse was bred. Dosage of OPQ for one administration per one mouse was 0.2 ml of OPQ solution containing 0.5 mg/ml of OPQ for group B and 0.2 ml of the solution containing 1.0 mg/ml of OPQ for group C and 0.2 ml of physiological saline was administered for group A.
On the 8th day from starting of experiment, mouse was anesthetized with ether and blood was drawn from carotid artery and spleen was aseptically extracted.
Cells of the spleen of respective groups were broken up and these cells were floated on tris-NH4Cl hemolytic solution warmed to 37°C and left for 5 minutes at 37°C to hemolyze erythrocytes, followed by washing twice with cold Hanks solution. The cells were suspended in RPMI medium at 4 x 10^6 cells/ml and the suspension was put in a flat bottom microplate of 96 holes. Culture was carried out in the air containing 5 % of CO2 at 37°C using concanavalin A (Type IV Sigma C2010) in an amount of 0.5 µg/ml or 2 µg/ml as mitogen. After 63 hours from starting of culture, ^3H-thymidine was added in an amount of 2.5 µci/ml and culturing was carried out for further 9 hours. Thereafter, cells were gathered on a glass fiber filter by cell harvester and ^3H on this filter was measured by a liquid scintillation counter.
As control, same four culturings were conducted under the same conditions without adding concanavalin A.
Values in the table are average values of intake amount (cpm) of ^3H in culture under four same conditions.
In Examples 36 - 40, macrophage activity was examined according to chemotaxis of peritoneal macrophage (literature 1) and activity of T cell and that of B cell were examined according to blast transformation reaction using concanavalin A and lipopolysaccharide, (LPS) as mitogen (literature 2). Literature 1: "Function of Macrophage and Method of Measurement of Function", pages 61-65 1985), edited by Educational Committee of Japan Bacteriological Society and published from Saikon Shuppan Co.) Literature 2: "New Method of Searching of Function of Lymphocytes", pages 350-355 (1987) edited by Junichi Yada and Michio Fujiwara and published from Chugai Igaku Co.

## O=C(O)c1cc(C(=O)O)c2c(n1)c1ncoc1c1cc(C(=O)O)[nH]c12 [OPQ, oxazopyrroloquinoline]
[1]; concentration 1x10^-7 M
  inhibition at 0.1 µM: 51.9%
[1]; concentration 2x10^-7 M
  inhibition at 0.2 µM: 62.1%
[1]; concentration 5x10^-8 M
  inhibition at 0.05 µM: 39.3%
cataract
  rats died: no rats died
T cell; 5 mg/kg mouse x 7 days, Concanavalin A 0.5µg/ml
  Relative activity (%): 137%
T cell; 5 mg/kg mouse x 7 days, Concanavalin A 2.0µg/ml
  Relative activity (%): 146%
T cell; 5 mg/kg mouse x 7 days, concanavalin 0 µg/ml, no administration 7312
  intake amount (cpm) of ^3H: 10796 cpm
T cell; 5 mg/kg mouse x 7 days, concanavalin 0.5 µg/ml, no administration 11637
  intake amount (cpm) of ^3H: 15942 cpm
T cell; 5 mg/kg mouse x 7 days, concanavalin 2 µg/ml, no administration 96188
  intake amount (cpm) of ^3H: 140376 cpm
T cell; 10 mg/kg mouse x 7 days, Concanavalin A 0.5µg/ml
  Relative activity (%): 189%
T cell; 10 mg/kg mouse x 7 days, Concanavalin A 2.0µg/ml
  Relative activity (%): 150%
T cell; 10 mg/kg mouse x 7 days, concanavalin 0 µg/ml, no administration 7312
  intake amount (cpm) of ^3H: 9124 cpm
T cell; 10 mg/kg mouse x 7 days, concanavalin 0.5 µg/ml, no administration 11637
  intake amount (cpm) of ^3H: 21965 cpm
T cell; 10 mg/kg mouse x 7 days, concanavalin 2 µg/ml, no administration 96188
  intake amount (cpm) of ^3H: 144171 cpm
